In brackets after ≈: the same amount, converted by molar mass.
Tests used:
[1] = test system: Balanus improvisus cyprid larvae; conditions: cited from earlier work
[2] = test system: blue mussel phenoloxidase; parameters: method as in Bayer et al. [2011]; conditions: ref Bayer et al. [2011]; cited from earlier work
microalgae [3] = assay: Microalgal adhesion and growth, whole panel of four species; format: cell-based, four marine microalgae; conditions: 10–0.01 μg/mL tested
Source text: (§1) Cyprid larvae of B. improvisus were reared in a laboratory cultivating system at Tjärnö Marine Biological Laboratory, University of Gothenburg, Sweden, as previously described by Berntsson et al. ([2000]). Four pure, but non-axenic, marine microalgae (obtained from Algobank, Caen, France) and 10 marine bacterial strains were used (Table 1) as representative microfoulers. These strains represent fouling species encountered in both estuarine and marine environments (Moodie et al. [2017b]). The bacteria were grown at 26 °C in a marine medium, composed of 0.5% peptone (neutralized bacteriological peptone, Oxoid Ltd.) in filtered (Whatman 1001–270, pore size 11 μm) natural seawater. Microalgae were grown and maintained at 22 °C in F/2 medium.
(§2) Microplates containing the compounds in ranging concentrations (10–0.01 μg/mL) were prepared from MeOH stock solutions as previously described (Trepos et al. [2014]; Moodie et al. [2017a]). Microalgal stock solutions were prepared using the chlorophyll analysis methodology of Chambers et al. ([2011]). The pretreated microplate wells were treated with 100 μL of the algal stock solutions (0.1 mg chlorophyll a/mL). The plates were then incubated for 5 days at 20 °C under constant light exposure (140 μmol m^−2 s^−1). Both microalgal adhesion and growth inhibition were measured. Growth was determined by analysis of liberated chlorophyll a after centrifugation and methanol addition. Chlorophyll a was quantified fluorometrically. MIC value for algal growth was defined as the lowest concentration yielding a decrease in chlorophyll a content. Microalgal adhesion was determined in an analogous manner where the non-attached algal cells were removed prior to methanol addition (100 μL), releasing chlorophyll a from the remaining algal biofilms. The MIC for adhesion was defined as the lowest compound concentration causing a reduction in […]. Toxicity experiments were performed in an analogous manner to those described for the bacterial assays.

marine bacteria [4] = assay: Bacterial adhesion assay, whole panel of ten strains; format: cell-based, 10 marine bacterial strains; conditions: tested up to 10 μg/mL, active = MIC of 10 μg/mL or below
How it was run: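 Read-out was OD at 630 nm for growth and OD at 595 nm of crystal violet-stained residual biofilm for adhesion. Suspensions at 2 × 10^8 CFU/mL were incubated 48 h at 26 °C with compound at 10–0.01 μg/mL.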

Halamphora coffeaeformis [5] = assay: Microalgal adhesion assay (chlorophyll a); format: cell-based; conditions: Halamphora coffeiformis, 120 h, 5 days incubation, 10–0.01 μg/mL tested, read-out: MIC against the adhesion (A) of microalgae, H. coffeaformis
Source text: as §1, §2

[6] = test system: Pleurochrysis roscoffensis; assay: Microalgal growth assay (chlorophyll a); format: cell-based; conditions: Chrysotila roscoffensis, 120 h, 5 days incubation, 10–0.01 μg/mL tested, read-out: MIC against the growth (G) of microalgae, P. roscoffensis
Halamphora coffeaeformis [7] = assay: Microalgal growth assay (chlorophyll a); format: cell-based; conditions: Halamphora coffeiformis, 120 h, 5 days incubation, 10–0.01 μg/mL tested, read-out: MIC against the growth (G) of microalgae, H. coffeaformis
Cylindrotheca closterium [8] = assay: Microalgal growth assay (chlorophyll a); format: cell-based; conditions: 120 h, 5 days incubation, 10–0.01 μg/mL tested, read-out: MIC against the growth (G) of microalgae, C. closterium
Porphyridium purpureum [9] = assay: Microalgal growth assay (chlorophyll a); format: cell-based; conditions: 120 h, 5 days incubation, 10–0.01 μg/mL tested, read-out: MIC against the growth (G) of microalgae, P. purpureum
[10] = test system: Balanus improvisus cyprid larvae; assay: whole plant or invertebrate; format: in vivo; conditions: Amphibalanus improvisus, 120 h, read-out: IC50 (cyprid settlement inhibition)
How it was run: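 Freshly molted cyprids (18–22 per dish) exposed in filtered seawater to 0.1–10 μg/mL compound (0.1% DMSO controls) for 5 days at 20–25 °C. Settled, swimming and dead larvae counted by microscope; IC50 is the concentration preventing 50% settlement, n = 4, determined only for compounds inhibiting >50% at 5 μg/mL.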

Vibrio aestuarianus [11] = assay: Bacterial adhesion assay (crystal violet, OD 595 nm); format: cell-based; conditions: 48 h, read-out: MIC against the adhesion of marine bacteria, V.a.
Source text: as §1
(§3) Bacterial strain adhesion and growth were determined according to the methods of Thabard et al. ([2011]). Bacterial suspensions (100-μL aliquots, 2 × 10^8 colony forming units/mL) were aseptically added to the compound containing microplate wells (10–0.01 μg/mL), and the plates were incubated for 48 h at 26 °C. Media only was used as a blank. Bacterial growth was monitored spectroscopically at 630 nm. The minimal inhibitory concentration (MIC) for bacterial growth was defined as the lowest concentration which results in a decrease in OD. After 48-h incubation time, the bacterial adhesion assay was conducted by emptying the wells and rinsing with sterile seawater (100 μL) to remove non-attached cells, and air-drying at room temperature. The residual bacterial biofilm was stained with aqueous crystal violet (100 μL, 0.3% v/v) and the OD measured at 595 nm (Sonak and Bhosle [1995]). […] If inhibition was observed, toxicity tests were conducted. The well contents were transferred into a flask of fresh media, and growth was measured after 5 days of additional incubation. The mode of action was deemed biostatic if an increase in OD was measured at 595 nm (Moodie et al. [2017a]).

Vibrio carchariae [12] = assay: as above; format: cell-based; conditions: Vibrio harveyi, 48 h, read-out: MIC against the adhesion of marine bacteria, V.c.
Source text: as §1, §3

Vibrio harveyi [13] = assay: as above; format: cell-based; conditions: 48 h, read-out: MIC against the adhesion of marine bacteria, V.h.
Source text: as §1, §3

Halomonas aquamarina [14] = assay: as above; format: cell-based; conditions: Vreelandella aquamarina, 48 h incubation, 10–0.01 μg/mL tested, read-out: MIC against the adhesion of marine bacteria, H.a.
Source text: as §1, §3

Vibrio proteolyticus [15] = assay: as above; format: cell-based; conditions: 48 h, read-out: MIC against the adhesion of marine bacteria, V.p.
Source text: as §1, §3

marine bacteria [16] = assay: Bacterial growth assay, whole panel of ten strains; format: cell-based, 10 marine bacterial strains; conditions: tested up to 10 μg/mL
Source text: as §1, §3

Roseobacter litoralis = conditions: ref Hanssen et al. ([2014]); cited from earlier work
marine bacteria [17] = conditions: panel of marine bacteria; ref Hanssen et al. [2014]; cited from earlier work
Vibrio aestuarianus [18] = conditions: ref Hanssen et al. ([2014]); cited from earlier work
Halomonas aquamarina [19] = conditions: ref Hanssen et al. ([2014]); cited from earlier work
Vibrio carchariae [20] = conditions: ref Hanssen et al. ([2014]); cited from earlier work
Cylindrotheca closterium [21] = conditions: ref Hanssen et al. ([2014]); cited from earlier work
Vibrio natriegens = conditions: ref Hanssen et al. ([2014]); cited from earlier work
[22] = test system: Pseudoalteromonas elyakovii; conditions: ref Hanssen et al. ([2014]); cited from earlier work
Vibrio carchariae [23] = conditions: ref Hanssen et al. ([2014]); cited from earlier work; remark: listed apart in the source
Vibrio harveyi [24] = conditions: ref Hanssen et al. ([2014]); cited from earlier work
Vibrio proteolyticus [25] = conditions: ref Hanssen et al. ([2014]); cited from earlier work
Porphyridium purpureum [26] = conditions: ref Hanssen et al. ([2014]); cited from earlier work
Shewanella putrefaciens = conditions: ref Hanssen et al. ([2014]); cited from earlier work
Halomonas aquamarina [27] = conditions: ref Hanssen et al. ([2014]); cited from earlier work; remark: listed apart in the source
[28] = test system: Pleurochrysis roscoffensis; conditions: ref Hanssen et al. ([2014]); cited from earlier work
microalgae [29] = test system: microalgae; parameters: method as in Hanssen et al. [2014]; conditions: ref Hanssen et al. [2014]; cited from earlier work
Halamphora coffeaeformis [30] = conditions: ref Hanssen et al. ([2014]); cited from earlier work
Porphyridium purpureum [31] = conditions: ref Hanssen et al. ([2014]); cited from earlier work; remark: listed apart in the source
Halamphora coffeaeformis [32] = conditions: ref Hanssen et al. ([2014]); cited from earlier work; remark: listed apart in the source
[33] = test system: Pleurochrysis roscoffensis; conditions: ref Hanssen et al. ([2014]); cited from earlier work; remark: listed apart in the source
Cylindrotheca closterium [34] = conditions: ref Hanssen et al. ([2014]); cited from earlier work; remark: listed apart in the source
Vibrio harveyi [35] = conditions: ref Hanssen et al. ([2014]); cited from earlier work; remark: listed apart in the source
Vibrio proteolyticus [36] = conditions: ref Hanssen et al. ([2014]); cited from earlier work; remark: listed apart in the source
Vibrio aestuarianus [37] = conditions: ref Hanssen et al. ([2014]); cited from earlier work; remark: listed apart in the source

O=C(NCCc1ccc(O)cc1)C(Cc1ccc(O)cc1)=NO [Compound 4, debromohemibastadin-1]
minimum significant dose to inhibit settlement ([1]; B. improvisus larvae settlement, ref Ortlepp et al. [2007]): 100 µM
inhibition of phenoloxidase, in words [2]: inhibit

COc1cc(OC)cc(C(Cc2ccccc2)=NO)c1 [Compound 15, 1-(3,5-Dimethoxyphenyl)-1-Hydroxyimino-2-Phenylethane]
MIC / activity against the attachment and growth of microalgae (microalgae [3]): not significantly active
MIC / activity against the adhesion of all bacteria tested (marine bacteria [4]): displayed inhibitory activities
MIC (Halamphora coffeaeformis [5]): 10 µg/mL (≈ 36.9 µM)
MIC [6]: > 10 µg/mL
MIC (Halamphora coffeaeformis [7]): > 10 µg/mL
MIC (Cylindrotheca closterium [8]): > 10 µg/mL
MIC (Porphyridium purpureum [9]): > 10 µg/mL
IC50 [10]: 0.75 µg/mL (≈ 2.76 µM)
MIC (Vibrio aestuarianus [11]): 10 µg/mL (≈ 36.9 µM)
MIC (Vibrio carchariae [12]): 10 µg/mL (≈ 36.9 µM)
MIC (Vibrio harveyi [13]): 10 µg/mL (≈ 36.9 µM)
MIC (Halomonas aquamarina [14]): 10 µg/mL (≈ 36.9 µM)
MIC (Vibrio proteolyticus [15]): > 10 µg/mL
MIC / activity against the growth of all bacteria tested (marine bacteria [16]): ^aCompound 15 was inactive against the growth of all bacteria tested up to 10 μg/mL

COc1c(Br)cc(C/C(=N\O)C(=O)NCCc2c[nH]c(=N)[nH]2)cc1Br [Ianthelline, ianthelline]
MIC against the growth of marine bacteria, R.l. (Roseobacter litoralis): 1 µg/mL
Inhibition of bacterial adhesion, in general (marine bacteria [17]): not effective
MIC against the adhesion of marine bacteria, V.a. (Vibrio aestuarianus [18]): 0.1 µg/mL
MIC against the adhesion of marine bacteria, H.a. (Halomonas aquamarina [19]): – (Not active at > 10 μg/mL)
MIC against the growth of marine bacteria, V.c. (Vibrio carchariae [20]): – (Not active at > 10 μg/mL)
MIC against the adhesion (A) of microalgae, C. closterium (Cylindrotheca closterium [21]): > 10 µg/mL
MIC against the growth of marine bacteria, V.n. (Vibrio natriegens): – (Not active at > 10 μg/mL)
MIC against the growth of marine bacteria, P.e. [22]: 1 µg/mL
IC50 (cyprid settlement inhibition) ([1]; B. improvisus, ref Hanssen et al. ([2014])): 3.0 µg/mL (≈ 6.31 µM)
Toxicity (%) (dead cyprids) ([1]; B. improvisus, reported at 5 μg/mL, ref Hanssen et al. ([2014])): 10.0%
MIC against the adhesion of marine bacteria, V.c. (Vibrio carchariae [23]): – (Not active at > 10 μg/mL)
MIC against the growth of marine bacteria, V.h. (Vibrio harveyi [24]): 10 µg/mL
MIC against the growth of marine bacteria, V.p. (Vibrio proteolyticus [25]): 10 µg/mL
MIC against the growth (G) of microalgae, P. purpureum (Porphyridium purpureum [26]): > 10 µg/mL
MIC against the growth of marine bacteria, S.p. (Shewanella putrefaciens): 0.1 µg/mL
MIC against the growth of marine bacteria, H.a. (Halomonas aquamarina [27]): – (Not active at > 10 μg/mL)
MIC against the adhesion (A) of microalgae, P. roscoffensis [28]: > 10 µg/mL
antialgal activity, in words (microalgae [29]): poor antialgal activity
MIC against the growth (G) of microalgae, H. coffeaformis (Halamphora coffeaeformis [30]): > 10 µg/mL
MIC against the adhesion (A) of microalgae, P. purpureum (Porphyridium purpureum [31]): > 10 µg/mL
MIC against the adhesion (A) of microalgae, H. coffeaformis (Halamphora coffeaeformis [32]): > 10 µg/mL
MIC against the growth (G) of microalgae, P. roscoffensis [33]: 10 µg/mL
MIC against the growth (G) of microalgae, C. closterium (Cylindrotheca closterium [34]): > 10 µg/mL
MIC against the adhesion of marine bacteria, V.h. (Vibrio harveyi [35]): – (Not active at > 10 μg/mL)
MIC against the adhesion of marine bacteria, V.p. (Vibrio proteolyticus [36]): – (Not active at > 10 μg/mL)
MIC against the growth of marine bacteria, V.a. (Vibrio aestuarianus [37]): 0.1 µg/mL

Source: publication PMC5889410, “Design and Biological Evaluation of Antifouling Dihydrostilbene Oxime Hybrids” (Marine Biotechnology (New York, N.y.), 2018)
